What was measured:
Homo sapiens [1] = organism: Homo sapiens; assay: Liver toxicity in human assessed as induction of drug-induced liver injury by measuring severity class index
Homo sapiens [2] = organism: Homo sapiens; assay: Liver toxicity in human assessed as induction of drug-induced liver injury by measuring verified drug-induced liver injury concern status
For DILI severity class in this document: key of the grades not given here.

| Compound | DILI_severity_class (Homo sapiens [1]) | DILI_Concern (Homo sapiens [2]) |
| --- | --- | --- |
| Cc1ccc(O)c([C@H](CCN(C(C)C)C(C)C)c2ccccc2)c1 [TOLTERODINE] | 0 | No-Dili-Concern |
| Cc1ccccc1C(=O)Nc1ccc(C(=O)N2CCCC(O)c3cc(Cl)ccc32)c(C)c1 (stereo unspecified) [TOLVAPTAN] | 8 | Most-Dili-Concern |
| CC1(C)O[C@@H]2[C@@H](CO[C@@]3(COS(N)(=O)=O)OC(C)(C)O[C@@H]23)O1 [TOPIRAMATE] | 3 | Less-Dili-Concern |
| CC[C@@]1(O)C(=O)OCc2c1cc1n(c2=O)Cc2cc3c(CN(C)C)c(O)ccc3nc2-1 [TOPOTECAN] | 0 | No-Dili-Concern |
| CN(C)CCOc1ccc(/C(=C(/CCCl)c2ccccc2)c2ccccc2)cc1 [TOREMIFENE] | 3 | Ambiguous-Dili-Concern |
| Cc1cccc(Nc2ccncc2S(=O)(=O)NC(=O)NC(C)C)c1 [TORSEMIDE] | 2 | Ambiguous-Dili-Concern |
| COc1cccc(C2(O)CCCCC2CN(C)C)c1 (stereo unspecified) [TRAMADOL] | 7 | Ambiguous-Dili-Concern |
| CCOC(=O)[C@H](CCc1ccccc1)N[C@@H](C)C(=O)N1[C@H](C(=O)O)C[C@H]2CCCC[C@@H]21 [TRANDOLAPRIL] | 4 | Less-Dili-Concern |
| N[C@@H]1C[C@H]1c1ccccc1.N[C@H]1C[C@@H]1c1ccccc1 [TRANYLCYPROMINE] | 3 | Less-Dili-Concern |
| O=c1n(CCCN2CCN(c3cccc(Cl)c3)CC2)nc2ccccn12 [TRAZODONE] | 5 | Less-Dili-Concern |
| CC1=C(/C=C/C(C)=C/C=C/C(C)=C/C(=O)O)C(C)(C)CCC1 [TRETINOIN] | 3 | Ambiguous-Dili-Concern |
| CC(=O)Oc1ccc(C2(c3ccc(OC(C)=O)cc3)C(=O)N(C(C)=O)c3ccccc32)cc1 [TRIACETYLDIPHENOLISATIN] | 8 | Most-Dili-Concern |
| Cc1nnc2n1-c1ccc(Cl)cc1C(c1ccccc1Cl)=NC2 [TRIAZOLAM] | 4 | Ambiguous-Dili-Concern |
| CN1CCN(CCCN2c3ccccc3Sc3ccc(C(F)(F)F)cc32)CC1 [TRIFLUOPERAZINE] | 2 | Ambiguous-Dili-Concern |
| OC(CCN1CCCCC1)(c1ccccc1)C1CCCCC1 (stereo unspecified) [TRIHEXYPHENIDYL] | 0 | No-Dili-Concern |
| CN1C(=O)OC(C)(C)C1=O [TRIMETHADIONE] | 5 | Ambiguous-Dili-Concern |
| COc1cc(C(=O)NCc2ccc(OCCN(C)C)cc2)cc(OC)c1OC [TRIMETHOBENZAMIDE] | 5 | Ambiguous-Dili-Concern |
| COc1cc(Cc2cnc(N)nc2N)cc(OC)c1OC [TRIMETHOPRIM] | 4 | Less-Dili-Concern |
| COc1cc(NCc2ccc3nc(N)nc(N)c3c2C)cc(OC)c1OC [TRIMETREXATE] | 3 | Ambiguous-Dili-Concern |
| CC(CN(C)C)CN1c2ccccc2CCc2ccccc21 (stereo unspecified) [TRIMIPRAMINE] | 2 | Ambiguous-Dili-Concern |

| Compound | DILI_severity_class (Homo sapiens [1]) | DILI_Concern (Homo sapiens [2]) |
| --- | --- | --- |
| Cc1ccc(/C(=C\CN2CCCC2)c2ccccn2)cc1 [TRIPROLIDINE] | 0 | No-Dili-Concern |
| Cc1c(C)c2c(c(C)c1O)CCC(C)(COc1ccc(CC3SC(=O)NC3=O)cc1)O2 (stereo unspecified) [TROGLITAZONE] | 8 | Most-Dili-Concern |
| NC(CO)(CO)CO [TROMETHAMINE] | 6 | Ambiguous-Dili-Concern |
| O=C(O[C@H]1C[C@H]2CC[C@@H](C1)[N+]21CCCC1)C(O)(c1ccccc1)c1ccccc1.[Cl-] [TROSPIUM CHLORIDE] | 0 | No-Dili-Concern |
| N[C@@H]1[C@H]2CN(c3nc4c(cc3F)c(=O)c(C(=O)O)cn4-c3ccc(F)cc3F)C[C@@H]12 [TROVAFLOXACIN] | 8 | Most-Dili-Concern |
| NCCc1ccc(O)cc1 [TYRAMINE] | 0 | No-Dili-Concern |
| C[C@H](CCC(=O)O)[C@H]1CC[C@H]2[C@@H]3[C@@H](O)C[C@@H]4C[C@H](O)CC[C@]4(C)[C@H]3CC[C@]12C [URSODIOL] | 0 | Ambiguous-Dili-Concern |
| CC(C)[C@H](N)C(=O)OCCOCn1cnc2c(=O)[nH]c(N)nc21 [VALACYCLOVIR] | 3 | Less-Dili-Concern |
| Cc1onc(-c2ccccc2)c1-c1ccc(S(N)(=O)=O)cc1 [VALDECOXIB] | 3 | Less-Dili-Concern |
| CC(C)[C@H](N)C(=O)OCC(CO)OCn1cnc2c(=O)nc(N)[nH]c21 (stereo partly specified) [VALGANCICLOVIR] | 3 | Ambiguous-Dili-Concern |
| CN[C@H](CC(C)C)C(=O)N[C@H]1C(=O)N[C@@H](CC(N)=O)C(=O)N[C@H]2C(=O)N[C@H]3C(=O)N[C@H](C(=O)N[C@H](C(=O)O)c4cc(O)cc(O)c4-c4cc3ccc4O)[C@H](O)c3ccc(c(Cl)c3)Oc3cc2cc(c3O[C@@H]2O[C@H](CO)[C@@H](O)[C@H](O)[C@H]2O[C@H]2C[C@](C)(N)[C@H](O)[C@H](C)O2)Oc2ccc(cc2Cl)[C@H]1O [VANCOMYCIN] | 0 | Less-Dili-Concern |
| c1cnc2cc3c(cc2n1)[C@@H]1CNC[C@H]3C1 [VARENICLINE] | 2 | Less-Dili-Concern |
| NC(=O)CC[C@@H]1NC(=O)[C@H](Cc2ccccc2)NC(=O)[C@H](Cc2ccc(O)cc2)NC(=O)[C@@H](N)CSSC[C@@H](C(=O)N2CCC[C@H]2C(=O)N[C@@H](CCCN=C(N)N)C(=O)NCC(N)=O)NC(=O)[C@H](CC(N)=O)NC1=O [VASOPRESSIN] | 0 | No-Dili-Concern |
| CC(=O)O[C@H]1C[C@@H]2CC[C@@H]3[C@H](CC[C@@]4(C)[C@H]3C[C@H]([N+]3(C)CCCCC3)[C@@H]4OC(C)=O)[C@@]2(C)C[C@@H]1N1CCCCC1 [VECURONIUM] | 0 | No-Dili-Concern |
| COc1ccc(C(CN(C)C)C2(O)CCCCC2)cc1 (stereo unspecified) [VENLAFAXINE] | 7 | Less-Dili-Concern |
| C=CC(N)CCC(=O)O (stereo unspecified) [VIGABATRIN] | 2 | Ambiguous-Dili-Concern |
| CC[C@]1(O)C[C@@H]2CN(CCc3c([nH]c4ccccc34)[C@@](C(=O)OC)(c3cc4c(cc3OC)N(C)[C@H]3[C@@](O)(C(=O)OC)[C@H](OC(C)=O)[C@]5(CC)C=CCN6CC[C@]43[C@@H]65)C2)C1 [VINBLASTINE] | 0 | No-Dili-Concern |
| CC[C@]1(O)C[C@H]2CN(CCc3c([nH]c4ccccc34)[C@@](C(=O)OC)(c3cc4c(cc3OC)N(C=O)[C@H]3[C@@](O)(C(=O)OC)[C@H](OC(C)=O)[C@]5(CC)C=CCN6CC[C@]43[C@@H]65)C2)C1 [VINCRISTINE] | 8 | Less-Dili-Concern |
| CCC1=C[C@@H]2CN(C1)Cc1c([nH]c3ccccc13)[C@@](C(=O)OC)(c1cc3c(cc1OC)N(C)[C@H]1[C@@](O)(C(=O)OC)[C@H](OC(C)=O)[C@]4(CC)C=CCN5CC[C@]31[C@@H]54)C2 [VINORELBINE] | 3 | Ambiguous-Dili-Concern |
| C[C@@H](c1ncncc1F)[C@](O)(Cn1cncn1)c1ccc(F)cc1F [VORICONAZOLE] | 8 | Most-Dili-Concern |

| Compound | DILI_severity_class (Homo sapiens [1]) | DILI_Concern (Homo sapiens [2]) |
| --- | --- | --- |
| O=C(CCCCCCC(=O)Nc1ccccc1)NO [VORINOSTAT] | 0 | No-Dili-Concern |
| CC(=O)CC(c1ccccc1)c1c(O)c2ccccc2oc1=O (stereo unspecified) [WARFARIN] | 5 | Less-Dili-Concern |
| CCOC(Nc1ccc(C(=O)O)cc1)C(=O)c1ccc(-c2ccccc2)cc1 (stereo unspecified) [XENAZOIC ACID] | 8 | Most-Dili-Concern |
| CCOC(=O)CN[C@@H](C(=O)N1CC[C@H]1C(=O)NCc1ccc(/C(N)=N\O)cc1)C1CCCCC1 [XIMELAGATRAN] | 8 | Most-Dili-Concern |
| COc1cc(C(=O)NS(=O)(=O)c2ccccc2C)ccc1Cc1cn(C)c2ccc(NC(=O)OC3CCCC3)cc12 [ZAFIRLUKAST] | 8 | Most-Dili-Concern |
| CCN(C(C)=O)c1cccc(-c2ccnc3c(C#N)cnn23)c1 [ZALEPLON] | 0 | No-Dili-Concern |
| Cc1cn([C@H]2C[C@H](N=[N+]=[N-])[C@@H](CO)O2)c(=O)[nH]c1=O [ZIDOVUDINE] | 8 | Most-Dili-Concern |
| CC(c1cc2ccccc2s1)N(O)C(N)=O (stereo unspecified) [ZILEUTON] | 5 | Most-Dili-Concern |
| CN(C)C/C=C(/c1ccc(Br)cc1)c1cccnc1 [ZIMELDINE] | 8 | Most-Dili-Concern |
| O=C1Cc2cc(CCN3CCN(c4nsc5ccccc45)CC3)c(Cl)cc2N1 [ZIPRASIDONE] | 3 | Less-Dili-Concern |
| O.O=P(O)(O)C(O)(Cn1ccnc1)P(=O)(O)O [ZOLEDRONIC ACID] | 0 | Less-Dili-Concern |
| CN(C)CCc1c[nH]c2ccc(C[C@H]3COC(=O)N3)cc12 [ZOLMITRIPTAN] | 3 | Ambiguous-Dili-Concern |
| Cc1ccc(-c2nc3ccc(C)cn3c2CC(=O)N(C)C)cc1 [ZOLPIDEM] | 7 | Ambiguous-Dili-Concern |
| NS(=O)(=O)Cc1noc2ccccc12 [ZONISAMIDE] | 2 | Less-Dili-Concern |
| BIVALIRUDIN | 0 | No-Dili-Concern |
| BLEOMYCIN | 3 | Ambiguous-Dili-Concern |
| CUPRIC CHLORIDE | 0 | No-Dili-Concern |
| DALTEPARIN SODIUM | 3 | Less-Dili-Concern |

— ChEMBL document CHEMBL4028802, “DILIrank: the largest reference drug list ranked by the risk for developing drug-induced liver injury in humans” (Drug Discov Today, 2016)
